Measurements as given in patent US20200399262A1, “COMPOUNDS FOR INHIBITING PROTEIN DEGRADATION AND METHODS OF USE THEREOF IN THE TREATMENT OF CANCER” (PI Therapeutics Ltd, priority 2018, published 2020).

Key:
Experiment in all cases: Cell viability panel, ATPlite 1Step
Format in all cases: cell-based
CAL 27 = conditions: Homo sapiens, Tongue squamous cell carcinoma, 72 h exposure, read-out: Compound EC50
Method: (§1) Cell viability panel studies. Cells were diluted in the corresponding ATCC recommended medium and dispensed in a 384-well plate, depending on the cell line used, at a density of 200-6400 cells per well. For each used cell line, the optimal cell density was used. Compound was serially diluted and 8 concentration (0.04-32 μM) were added to the cells for 72 h exposure. At t=end, of ATPlite 1Step™ (PerkinElmer) were used to calculate cell viability. Cell lines marked with asterisk were seeded 24 h prior to treatment in 96-well plates at the density range of 5,000-40,000 cells/well, according to duplication rate, in RPMI 1640 medium containing 10% fetal bovine serum and 2 mM L-glutamine. Compounds were diluted from 10 mM DMSO stock and treatment was applied at the range of 0.04-1 μM. Following incubation at 37° C. for 48 hours with increasing concentrations of the compounds, viability was determined with CyQUANT® Direct Assay Kit (Invitrogen). Output intensities were normalized to values after treatment with DMSO alone, and EC50 values were calculated using the absorbance measurements [time zero, (Tz), growth control, (C), plus the test growth at the four drug concentration levels (Ti)] as follows: [(Ti−Tz)/(C−Tz)]×100 for concentrations for which Ti>/=Tz; [(Ti−Tz)/Tz]×100 for concentrations for which Ti−<Tz.

DU 145 = conditions: Homo sapiens, Prostate carcinoma, 72 h exposure, read-out: Compound EC50
Method: as §1

COLO 829 = conditions: Homo sapiens, Cutaneous melanoma, 72 h exposure, read-out: Compound EC50
Method: as §1

RD = conditions: Homo sapiens, Embryonal rhabdomyosarcoma, 72 h exposure, read-out: Compound EC50
Method: as §1

SW872 = conditions: Homo sapiens, Liposarcoma, 72 h exposure, read-out: Compound EC50
Method: as §1

SW620 = conditions: Homo sapiens, SW-620, Colon adenocarcinoma, 72 h exposure, read-out: Compound EC50
Method: as §1

RPMI-7951 = conditions: Homo sapiens, Melanoma, 72 h exposure, read-out: Compound EC50
Method: as §1

KATO III = conditions: Homo sapiens, Signet ring cell gastric adenocarcinoma, 72 h exposure, read-out: Compound EC50
Method: as §1

Hs 578T = conditions: Homo sapiens, Invasive ductal carcinoma, 72 h exposure, read-out: Compound EC50
Method: as §1

TT = conditions: Homo sapiens, Hereditary thyroid gland medullary carcinoma, 72 h exposure, read-out: Compound EC50
Method: as §1

HT-1080 = conditions: Homo sapiens, Fibrosarcoma, 72 h exposure, read-out: Compound EC50
Method: as §1

5637 = conditions: Bladder carcinoma, 72 h exposure, read-out: Compound EC50
Method: as §1

C-33 A = conditions: Homo sapiens, Cervical squamous cell carcinoma, 72 h exposure, read-out: Compound EC50
Method: as §1

JAR = conditions: Gestational choriocarcinoma, 72 h exposure, read-out: Compound EC50
Method: as §1

RL = conditions: Homo sapiens, Diffuse large B-cell lymphoma, 72 h exposure, read-out: Compound EC50
Method: as §1

VA-ES-BJ = conditions: Epithelioid sarcoma, 72 h exposure, read-out: Compound EC50
Method: as §1

HuTu 80 = conditions: Homo sapiens, HuTu80, Duodenal adenocarcinoma, 72 h exposure, read-out: Compound EC50
Method: as §1

TCCSUP = conditions: Homo sapiens, TCC-SUP, Bladder carcinoma, 72 h exposure, read-out: Compound EC50
Method: as §1

G-361 = conditions: Homo sapiens, Melanoma, 72 h exposure, read-out: Compound EC50
Method: as §1

769-P = conditions: Homo sapiens, Renal cell carcinoma, 72 h exposure, read-out: Compound EC50
Method: as §1

A-498 = conditions: Homo sapiens, A498, Renal cell carcinoma, 72 h exposure, read-out: Compound EC50
Method: as §1

PC-3 = conditions: Homo sapiens, Prostate carcinoma, 72 h exposure, read-out: Compound EC50
Method: as §1

AU-565 = conditions: Homo sapiens, AU565, Breast adenocarcinoma, 72 h exposure, read-out: Compound EC50
Method: as §1

DU4475 = conditions: Homo sapiens, DU-4475, Breast carcinoma, 72 h exposure, read-out: Compound EC50
Method: as §1

AN3 CA = conditions: Homo sapiens, Endometrial adenocarcinoma, 72 h exposure, read-out: Compound EC50
Method: as §1

LS 174T = conditions: Homo sapiens, LS174T, Colon adenocarcinoma, 72 h exposure, read-out: Compound EC50
Method: as §1

ACHN = conditions: Homo sapiens, Papillary renal cell carcinoma, 72 h exposure, read-out: Compound EC50
Method: as §1

MG-63 = conditions: Homo sapiens, Osteosarcoma, 72 h exposure, read-out: Compound EC50
Method: as §1

DLD-1 = conditions: Homo sapiens, Colon adenocarcinoma, 72 h exposure, read-out: Compound EC50
Method: as §1

Q: `CN(C)CCCS(=O)(=O)N1C/C(=C\c2ccc(C#N)cc2)C(=O)/C(=C/c2ccc(C#N)cc2)C1` [Compound AA] was tested. Which EC50 (CAL 27) did it give?
A: < 300 nM

Q: What about the EC50 (DU 145) of the same compound?
A: 300 to 1000 nM

Q: What about the EC50 (COLO 829) of the same compound?
A: < 300 nM

Q: And the EC50 (RD)?
A: < 300 nM

Q: What about the EC50 (SW872) of the same compound?
A: < 300 nM

Q: What about the EC50 (SW620) of the same compound?
A: < 300 nM

Q: What about the EC50 (RPMI-7951) of the same compound?
A: < 300 nM

Q: And the EC50 (KATO III)?
A: 300 to 1000 nM

Q: What about the EC50 (Hs 578T) of the same compound?
A: < 300 nM

Q: What about the EC50 (TT) of the same compound?
A: 300 to 1000 nM

Q: And the EC50 (HT-1080)?
A: < 300 nM

Q: What about the EC50 5637 of the same compound?
A: < 300 nM

Q: What about the EC50 (C-33 A) of the same compound?
A: < 300 nM

Q: What about the EC50 (JAR) of the same compound?
A: < 300 nM

Q: And the EC50 (RL)?
A: < 300 nM

Q: And the EC50 (VA-ES-BJ)?
A: < 300 nM

Q: And the EC50 (HuTu 80)?
A: < 300 nM

Q: And the EC50 (TCCSUP)?
A: < 300 nM

Q: And the EC50 (G-361)?
A: < 300 nM

Q: And the EC50 (769-P)?
A: < 300 nM

Q: What about the EC50 (A-498) of the same compound?
A: 300 to 1000 nM

Q: What about the EC50 (PC-3) of the same compound?
A: 300 to 1000 nM

Q: What about the EC50 (AU-565) of the same compound?
A: < 300 nM

Q: And the EC50 (DU4475)?
A: 300 to 1000 nM

Q: What about the EC50 (AN3 CA) of the same compound?
A: < 300 nM

Q: And the EC50 (LS 174T)?
A: < 300 nM

Q: What about the EC50 (ACHN) of the same compound?
A: 300 to 1000 nM

Q: And the EC50 (MG-63)?
A: < 300 nM

Q: What about the EC50 (DLD-1) of the same compound?
A: < 300 nM
